According to patent EP4268823A1, “COMPOUND FOR TREATING NEUROINFLAMMATION” (Universitätsklinikum Hamburg-Eppendorf, priority 2022, dated 2023):

What was measured:
primary neurons = assay: Cell death induction, dead neurons with CellTox green reagent; assay type: cell-based, mouse; conditions: 1 µM UNC0642 pre-treated 24 hours
Description: (§1) For primary cortical cultures pregnant C57BL/6J, or G9afl/fl;Snap25-Cre mice were euthanized. To ensure comparability between genotypes, only embryos from heterozygous breeding's were used. Brainstem tissue of each embryo for genotyping was reserved and cortices were isolated, dissociated and cells were plated at a density of 1 × 10^5 cells per 1 cm^2 on poly-D-lysine-coated wells (5 µM Sigma-Aldrich, cat. no. A-003-M). If not stated otherwise, cells were maintained in neurobasal plus medium (supplemented with B27 plus, penicillin, streptomycin and L-glutamine; Gibco, cat. no. A3582901) at 37°C, 5% CO^2 and a relative humidity of 98%, and treated with 1 µM cytarabine (Sigma-Aldrich, cat. no. BP383) at 1 day in vitro (div) to inhibit glial cell proliferation. If no cytarabine was applied cells were maintained in PNBM medium (supplemented with neural cell survival factor, gentamycin and L-glutamine; Lonza). Throughout, cultures after 14-23 div were used for experiments. G9a inhibitor UNC0642 was used in a concentration of 1 µM and cultures were pre-treated 24 hours before further experimental procedures.
Primary neurons were subjected to dedicated compounds initiating either apoptosis (stauro-sporine), necroptosis (TNF-α + LCL-161 + Z-VAD-FMK, or shikonin), or ferroptosis (RSL3, or erastin) for 48 h in G9afl/fl;Snap25-Cre cultures, or cultures pre-treated for 24 hours with 1 µM UNC0642. Together with the cell death inducing compounds, CellToxTM Green Cytotoxicity Assay (Promega) was added to primary neurons 1:2000. Before fixation with 4% paraformaldehyde, cells were counterstained with Hoechst […]. Neurons were imaged on a Zeiss LSM 700 confocal microscope using 20× magnification.

G9a = target: T1, G9a (Mus musculus, UniProt Q9Z148); assay: H3K9me2 / G9a immunofluorescence staining in primary neuronal cultures; assay type: cell-based
T1 construct: UNC0642 pre-treated primary neuronal cultures compared to respective controls; endogenous in cells; host or cells: primary mouse cortical neuronal cultures (C57BL/6J embryos)
T1 sequence (Q9Z148 1-1263): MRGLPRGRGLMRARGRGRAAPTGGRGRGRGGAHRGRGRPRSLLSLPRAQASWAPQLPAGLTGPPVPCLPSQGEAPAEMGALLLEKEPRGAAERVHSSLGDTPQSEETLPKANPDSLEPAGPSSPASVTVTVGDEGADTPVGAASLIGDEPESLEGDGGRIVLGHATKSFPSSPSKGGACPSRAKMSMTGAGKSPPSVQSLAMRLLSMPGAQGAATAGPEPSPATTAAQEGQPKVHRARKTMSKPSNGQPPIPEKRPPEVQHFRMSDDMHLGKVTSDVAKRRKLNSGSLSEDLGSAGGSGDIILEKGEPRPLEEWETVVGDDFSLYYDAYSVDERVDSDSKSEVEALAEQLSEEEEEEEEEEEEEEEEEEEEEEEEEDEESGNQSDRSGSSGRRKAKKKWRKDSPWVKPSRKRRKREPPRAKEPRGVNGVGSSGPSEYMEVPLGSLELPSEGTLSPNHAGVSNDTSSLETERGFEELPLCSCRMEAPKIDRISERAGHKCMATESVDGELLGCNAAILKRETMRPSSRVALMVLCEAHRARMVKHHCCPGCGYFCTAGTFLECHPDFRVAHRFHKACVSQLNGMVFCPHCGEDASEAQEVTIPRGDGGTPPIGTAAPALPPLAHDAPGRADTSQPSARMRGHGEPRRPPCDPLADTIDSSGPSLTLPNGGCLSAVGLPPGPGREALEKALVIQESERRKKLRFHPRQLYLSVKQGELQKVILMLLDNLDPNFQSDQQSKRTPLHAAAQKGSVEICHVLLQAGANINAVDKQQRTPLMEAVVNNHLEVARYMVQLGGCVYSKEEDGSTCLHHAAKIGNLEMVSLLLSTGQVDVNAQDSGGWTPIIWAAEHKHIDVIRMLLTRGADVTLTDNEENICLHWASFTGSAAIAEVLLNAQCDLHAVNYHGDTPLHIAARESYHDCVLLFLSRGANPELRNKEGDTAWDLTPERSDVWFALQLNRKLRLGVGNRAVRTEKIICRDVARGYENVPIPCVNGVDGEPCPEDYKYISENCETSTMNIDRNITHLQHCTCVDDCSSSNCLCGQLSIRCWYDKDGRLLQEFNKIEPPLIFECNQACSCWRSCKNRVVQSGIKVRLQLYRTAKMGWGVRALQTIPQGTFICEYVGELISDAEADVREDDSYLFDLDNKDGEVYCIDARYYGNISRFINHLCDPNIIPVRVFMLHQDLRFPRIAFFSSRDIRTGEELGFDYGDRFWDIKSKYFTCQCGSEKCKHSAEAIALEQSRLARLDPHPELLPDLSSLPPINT
Description: as §1
Immunocytochemistry was performed as described previously (15). HiPSC-neurons and mouse neurons were cultivated on 12 mm diameter cover slips or on 96-well plates suited for confocal microscopy, fixed with 4% paraformaldehyde (PFA), incubated in 10% normal donkey's serum (NDS) containing 0.25% Triton X-100, and subsequently immunolabeling was performed. Immunostainings were analyzed with a Zeiss LSM 700 confocal microscope.

[1] = test system: primary neuronal cultures; assay: Cytosolic calcium imaging of H2O2-exposed neuronal cultures; assay type: cell-based, mouse; conditions: acute hydrogen peroxide stimulation, UNC0642 vs. DMSO
Description: as §1, with “Throughout, cultures after 14-23 div were used for experiments. G9a inhibitor UNC0642 was used in a concentration of 1 µM and cultures were pre-treated 24 hours before further experimental procedures.” left out
Primary neuronal cultures were seeded on Ibidi 60 µ-Dish Quad (cat. No. 80411) plates. […] Before applying the indicated chemicals, 5-10 min of baseline activity was first recorded. […] For data analysis, mean fluorescence values of every cell were measured using Fiji software (NIH) and normalized to the maximal calcium response after ionomycin challenge. For each cell, mean AUC of the calcium response was calculated using a custom R script.

anti-ferroptotic genes = assay: qPCR of ferroptosis-related genes in sorted spinal cord neuronal nuclei of EAE mice; assay type: in vivo, mouse; conditions: EAE + UNC0642 vs. EAE
[2] = primary neuronal cultures, 1 µM UNC0642 pre-treated 24 hours, vs. DMSO

COc1cc2c(NC3CCN(C(C)C)CC3)nc(N3CCC(F)(F)CC3)nc2cc1OCCCN1CCCC1 [UNC0642, 2-(4,4-difluoropiperidin-1-yl)-6-methoxy-N-[1-(propan-2-yl)piperidin-4-yl]-7-[3-(pyrrolidin-1-yl)propoxy]quinazolin-4-amine]
ferroptosis (dead neurons) induced by RSL3 (primary neurons; 48 h inducer): substantially rescued | ferroptosis (dead neurons) induced by erastin (primary neurons; 48 h inducer): substantially rescued | necroptosis (dead neurons) (primary neurons; TNF-α + LCL-161 + Z-VAD-FMK, or shikonin, 48 h): neither apoptosis nor necroptosis was affected | apoptosis (dead neurons) (primary neurons; staurosporine 48 h): neither apoptosis nor necroptosis was affected | upregulation of H3K9me2 in response to ferroptosis induction (G9a; erastin or RSL3, with UNC0642): effectively prevented | upregulation of H3K9me2 by hydrogen peroxide treatment (G9a; hydrogen peroxide stimulation, UNC0642 treatment): still able to overcome this effect | G9a protein level (G9a; [2]): did not change | reduction of H3K9me2 signal (G9a; [2]): 45% | hydrogen peroxide-induced calcium overload [1]: rescued hydrogen peroxide-induced calcium overload | mRNA expression of Cbs (anti-ferroptotic genes): significantly boosted the expression | mRNA expression of Gclc (anti-ferroptotic genes): significantly boosted the expression | mRNA expression of Gpx4 (anti-ferroptotic genes): significantly boosted the expression | mRNA expression of Nfe212 (anti-ferroptotic genes): significantly boosted the expression | mRNA expression of multiple glutathione S-transferases (anti-ferroptotic genes): derepression
